Data taken from paper PMC11182572, “Mining Bovine Milk Proteins for DPP-4 Inhibitory Peptides Using Machine Learning and Virtual Proteolysis” (Research, 2024).
Read-outs that look alike come from different tables or passages of the source. No end group written: not given here.

Tests used:
DPP-4 [1] = target: T1, DPP-4 (Homo sapiens, UniProt P27487); test: DPP-4 inhibitory activity (Gly-Pro-p-nitroanilide substrate); format: biochemical; details: for IC50: 25 μl sample + 25 μl Gly-Pro-p-nitroanilide (3.2 mM), preincubated 37 °C 10 min, 50 μl DPP-4 (0.02 U/ml), 60 min, 100 mM tris buffer (pH 7.6), absorbance at 405 nm
T1 construct: purchased Sigma-Aldrich Co., St. Louis, MO, USA
Description: Determination of DPP-4 inhibitory activity
The DPP-4 inhibitory activity of the synthesized peptides was determined as previously described, with slight modifications. Briefly, 25 μl of the sample and 25 μl of Gly-Pro-p-nitroanilide (3.2 mM) were preincubated at 37 °C for 10 min before 50 μl of DPP-4 (0.02 U/ml) was added to the mixture (Sigma-Aldrich Co., St. Louis, MO, USA). After 60 min, the reaction was halted by adding 100 μl of 1 M sodium acetate solution. The absorbance at 405 nm was measured using a microplate reader (Thermo Fisher Scientific, Waltham, MA, USA). DPP-4 inhibition (DI) was calculated as follows: DI%=1−Asample−Asample blank/Apositive−Anegative×100% (5) where A(sample) represents the optical density of DPP-4 in the presence of both the substrate and peptide. A(sample blank) represents the optical density of the 100 mM tris buffer (pH 7.6). A(positive) represents the optical density of the enzyme and substrate in the absence of an inhibitor. A(negative) represents the optical density of the enzyme in the absence of substrate and inhibitor.

DPP-4 [2] = target: T1, DPP-4; details: methodologies differ among studies; cited from earlier work

T1 sequence (P27487 whole entry, species assumed): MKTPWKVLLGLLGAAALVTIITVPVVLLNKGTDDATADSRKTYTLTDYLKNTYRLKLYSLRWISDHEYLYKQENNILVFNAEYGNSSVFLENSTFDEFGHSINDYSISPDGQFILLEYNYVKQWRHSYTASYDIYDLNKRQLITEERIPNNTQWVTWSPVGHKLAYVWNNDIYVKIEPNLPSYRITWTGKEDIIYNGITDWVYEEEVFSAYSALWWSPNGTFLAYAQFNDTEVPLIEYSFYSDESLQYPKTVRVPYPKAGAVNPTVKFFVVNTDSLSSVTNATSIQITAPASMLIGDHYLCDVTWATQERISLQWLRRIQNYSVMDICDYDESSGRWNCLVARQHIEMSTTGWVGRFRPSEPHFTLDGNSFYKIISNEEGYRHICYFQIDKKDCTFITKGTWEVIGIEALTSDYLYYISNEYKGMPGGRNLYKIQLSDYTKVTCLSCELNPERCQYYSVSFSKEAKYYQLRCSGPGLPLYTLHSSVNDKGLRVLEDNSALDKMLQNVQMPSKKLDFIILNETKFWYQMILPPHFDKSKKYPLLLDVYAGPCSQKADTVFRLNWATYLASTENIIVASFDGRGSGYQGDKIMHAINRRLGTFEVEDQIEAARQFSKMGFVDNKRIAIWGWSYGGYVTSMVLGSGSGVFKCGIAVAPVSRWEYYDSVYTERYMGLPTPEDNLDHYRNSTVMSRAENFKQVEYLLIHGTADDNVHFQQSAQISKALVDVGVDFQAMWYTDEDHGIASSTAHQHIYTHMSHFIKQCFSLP

Row | IC50 (DPP-4 [1]) [µM] | Substance | also measured
1 | 645 | GPVRGPF [GPVRGPF] | –
2 | – | FVAPFPEV [peptide from α-S1-casein, pepsin (pH 1.3), pepsin (pH > 2); synthesized] | DPP-4 inhibitory effect (in words) (DPP-4 [1]; in vitro): poor inhibitory effect
3 | 1610 | HPHPHL [HPHPHL] | –
4 | – | TPEVDDEALEK [peptide from previous study [6]] | IC50 (DPP-4 [2]): 320 µM
